In test [1] the target is 5-hydroxytryptamine receptor 6 (Homo sapiens, UniProt P50406). The test is classed as cell membranes, HeLa, Membrane. As to conditions: hela. Further: in other assays of this panel Not Active means under 50% inhibition at 10 µM.
In a further test the target is Melanocortin receptor 5 (Homo sapiens, UniProt P33032). It counts as cell membranes, HEK293, Membrane. To be noted: hek293. Further: in other assays of this panel Not Active means under 50% inhibition at 10 µM.
Test [2] has as its target T1, Neuropeptide Y receptor type 1 (Homo sapiens, UniProt P25929). Further: in other assays of this panel Not Active means under 50% inhibition at 10 µM.
T1 sequence (P25929 whole entry): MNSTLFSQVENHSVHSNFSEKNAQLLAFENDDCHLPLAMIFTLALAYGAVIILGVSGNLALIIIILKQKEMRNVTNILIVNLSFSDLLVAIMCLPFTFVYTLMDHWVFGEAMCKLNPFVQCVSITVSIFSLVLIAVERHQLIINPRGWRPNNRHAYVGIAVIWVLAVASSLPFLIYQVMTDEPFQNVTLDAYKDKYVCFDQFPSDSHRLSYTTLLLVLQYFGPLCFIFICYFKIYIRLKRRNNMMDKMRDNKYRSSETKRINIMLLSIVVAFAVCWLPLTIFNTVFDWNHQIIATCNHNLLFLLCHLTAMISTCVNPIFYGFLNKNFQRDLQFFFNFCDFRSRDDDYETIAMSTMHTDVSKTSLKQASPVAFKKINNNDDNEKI
It counts as cell membranes, Membrane. As to conditions: sk-n-mc.

The nature of test [3]: DRUGMATRIX: Sodium/nucleoside co-transporter radioligand binding (ligand: nitrobenzylthioinosine). The test is classed as cell membranes, Cavia porcellus, Dunkin-Hartley, Cerebral cortex, Membrane. To be noted: Not Active = under 50% inhibition at 10 µM.
The target of the next test is T2, Adenosine receptor A3 (Homo sapiens, UniProt P0DMS8).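 Further: radioligand binding assay with AB-MECA serving as the labeled ligand; in other assays of this panel Not Active means under 50% inhibition at 10 µM.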
T2 sequence (P0DMS8 whole entry): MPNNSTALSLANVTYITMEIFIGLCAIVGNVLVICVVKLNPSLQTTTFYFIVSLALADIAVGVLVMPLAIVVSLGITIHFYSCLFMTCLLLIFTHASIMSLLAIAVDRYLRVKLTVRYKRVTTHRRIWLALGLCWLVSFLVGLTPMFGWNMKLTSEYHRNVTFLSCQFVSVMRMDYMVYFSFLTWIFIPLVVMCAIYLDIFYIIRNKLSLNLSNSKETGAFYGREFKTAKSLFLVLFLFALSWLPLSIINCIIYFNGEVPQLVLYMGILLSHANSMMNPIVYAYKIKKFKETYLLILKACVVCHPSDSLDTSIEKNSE
The test is classed as cell membranes, CHO-K1, Membrane. To be noted: for Ki: read-out: Ki.

Test [4] addresses T3, Alpha-2A adrenergic receptor (Homo sapiens, UniProt P08913).
T3 sequence (P08913 whole entry): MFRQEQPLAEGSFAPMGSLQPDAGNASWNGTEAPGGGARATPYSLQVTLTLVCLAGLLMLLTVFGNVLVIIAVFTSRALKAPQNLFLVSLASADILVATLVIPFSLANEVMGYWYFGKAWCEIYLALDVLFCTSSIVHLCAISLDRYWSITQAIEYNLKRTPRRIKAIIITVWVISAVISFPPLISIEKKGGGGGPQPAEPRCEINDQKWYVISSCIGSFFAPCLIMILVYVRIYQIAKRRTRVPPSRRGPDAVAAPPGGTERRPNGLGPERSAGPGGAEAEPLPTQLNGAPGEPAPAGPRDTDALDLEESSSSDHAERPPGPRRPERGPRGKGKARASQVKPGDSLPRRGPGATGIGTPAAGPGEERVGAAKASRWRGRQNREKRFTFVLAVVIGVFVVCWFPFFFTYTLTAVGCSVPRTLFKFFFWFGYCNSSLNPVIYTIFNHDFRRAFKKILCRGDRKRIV
The test is classed as cell membranes, Sf9, Membrane. To be noted: sf9.

A short description of test [5]: DRUGMATRIX: GABAA, Chloride Channel, TBOB radioligand binding (ligand: [3H] TBOB). It counts as cell membranes, Rattus norvegicus, Wistar, Cerebral cortex, Membrane. As to conditions: Not Active = under 50% inhibition at 10 µM.

Usually IC50 stands for the point on the concentration scale where inhibition reaches its midpoint. By Ki is commonly meant the equilibrium dissociation constant of an inhibitor or competing ligand from its target.

Sequence of 5-hydroxytryptamine receptor 6 (P50406 whole entry): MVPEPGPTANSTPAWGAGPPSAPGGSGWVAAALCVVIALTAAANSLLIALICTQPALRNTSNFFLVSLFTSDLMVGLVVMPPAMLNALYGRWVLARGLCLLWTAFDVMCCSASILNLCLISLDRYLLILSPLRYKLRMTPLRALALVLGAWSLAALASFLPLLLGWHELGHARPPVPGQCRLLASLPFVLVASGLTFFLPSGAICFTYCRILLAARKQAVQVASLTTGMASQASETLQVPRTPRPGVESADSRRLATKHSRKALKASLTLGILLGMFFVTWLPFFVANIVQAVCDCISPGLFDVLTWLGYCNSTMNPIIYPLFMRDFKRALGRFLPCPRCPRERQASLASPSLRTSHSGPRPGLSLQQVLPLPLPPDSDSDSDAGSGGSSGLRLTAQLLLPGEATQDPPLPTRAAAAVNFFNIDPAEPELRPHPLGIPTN
Sequence of Melanocortin receptor 5 (P33032 whole entry): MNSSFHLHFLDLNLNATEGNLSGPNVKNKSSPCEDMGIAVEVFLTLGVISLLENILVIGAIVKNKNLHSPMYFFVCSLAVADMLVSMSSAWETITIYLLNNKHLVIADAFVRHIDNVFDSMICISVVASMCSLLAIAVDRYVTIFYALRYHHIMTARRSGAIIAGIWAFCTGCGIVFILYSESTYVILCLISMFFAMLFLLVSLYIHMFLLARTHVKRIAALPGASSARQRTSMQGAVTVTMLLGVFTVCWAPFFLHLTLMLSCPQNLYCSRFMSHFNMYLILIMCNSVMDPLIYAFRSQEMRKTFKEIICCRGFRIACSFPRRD

`C#C[C@]1(O)CC[C@H]2[C@@H]3CCc4cc(O)ccc4[C@H]3CC[C@@]21C` [ETHINYL ESTRADIOL]: the IC50 entry in test [1] is “Not Active”; on Melanocortin receptor 5, “Not Active”; in test [2] it was “Not Active”; in test [3] it was “Not Active”; at Adenosine receptor A3 (read-out: IC50), 32.9 µM; in test [4] it was “Not Active”. The concentration for half-maximal inhibition (IC50) result in test [5] is reported as “Not Active”. Besides, the Ki entry is “Not Active” in test [3], 18.6 µM on Adenosine receptor A3 and “Not Active” in test [5].

Take `OCCO` [ETHYLENE GLYCOL]: the IC50 result (in test [1]; against Melanocortin receptor 5; in test [2]; in test [3]; on Adenosine receptor A3 (cho-k1); in test [4]) was “Not Active” in each case. The IC50 result in test [5] is reported as “Not Active”. The Ki entry in test [3] and in test [5] was “Not Active” throughout.

With `CC(=O)OCC(CCn1cnc2cnc(N)nc21)COC(C)=O` [FAMCICLOVIR], the IC50 entry (in test [1]; at Melanocortin receptor 5; in test [2]; in test [3]; against Adenosine receptor A3 (cho-k1); in test [4]) was “Not Active” throughout. The IC50 result in test [5] was “Not Active”. In addition, the Ki entry in test [3] and in test [5] was “Not Active” each time.

Regarding `O=C(O)Cc1ccc(-c2ccccc2)cc1` [FELBINAC], the IC50 entry (in test [1]; at Melanocortin receptor 5; in test [2]; in test [3]; on Adenosine receptor A3 (cho-k1); in test [4]) was “Not Active” throughout. For the same compound, the concentration for half-maximal inhibition (IC50) result in test [5] is listed as “Not Active”. For the same compound, the Ki result in test [3] and in test [5] was “Not Active” in each case.

As to `CCOC(=O)C1=C(C)NC(C)=C(C(=O)OC)C1c1cccc(Cl)c1Cl` (centres undefined) [FELODIPINE], the IC50 result in test [1] was “Not Active”; on Melanocortin receptor 5, “Not Active”; in test [2], “Not Active”; in test [3], “Not Active”; on Adenosine receptor A3 (read-out: IC50), 1.06 µM; in test [4] it was “Not Active”. Moreover, the IC50 result in test [5] was “Not Active”. The Ki entry in test [3] was “Not Active”; at Adenosine receptor A3, 0.597 µM; in test [5], “Not Active”.

`CC(C(=O)O)c1ccc(-c2ccccc2)c(F)c1` (centres undefined) [FLURBIPROFEN]: the IC50 entry (in test [1]; against Melanocortin receptor 5; in test [2]; in test [3]; at Adenosine receptor A3 (cho-k1); in test [4]) was “Not Active” in each case. Besides, in test [5], the IC50 result was “Not Active”. The Ki entry in test [3] and in test [5] was “Not Active” each time.

Take `Cc1cn[nH]c1` [FOMEPIZOLE]: the IC50 entry (in test [1]; against Melanocortin receptor 5; in test [2]; in test [3]; against Adenosine receptor A3 (cho-k1); in test [4]) was “Not Active” throughout. Besides, the IC50 result in test [5] is “Not Active”. Moreover, the Ki entry in test [3] and in test [5] was “Not Active” in each case.

As for `NC[C@@H]1O[C@H](O[C@H]2[C@@H](O)[C@H](O[C@@H]3[C@@H](O)[C@H](N)C[C@H](N)[C@H]3O[C@H]3O[C@H](CN)[C@@H](O)[C@H](O)[C@H]3N)O[C@@H]2CO)[C@H](N)[C@@H](O)[C@@H]1O` [FRAMYCETIN], the IC50 result (in test [1]; against Melanocortin receptor 5; in test [2]; in test [3]; against Adenosine receptor A3 (cho-k1); in test [4]) was “Not Active” in each case. Further, in test [5], the IC50 entry is reported as “Not Active”. The Ki result in test [3] and in test [5] was “Not Active” each time.

Take `C[C@H]([C@](O)(Cn1cncn1)c1ccc(F)cc1F)S(C)(=O)=O` [GENACONAZOLE]: the IC50 result (in test [1]; on Melanocortin receptor 5; in test [2]; in test [3]; against Adenosine receptor A3 (cho-k1); in test [4]) was “Not Active” in each case. Also, the IC50 result in test [5] was “Not Active”. Besides, the inhibitory constant (Ki) result in test [3] and in test [5] was “Not Active” in each case.

Regarding `Cc1cnc(C(=O)NCCc2ccc(S(=O)(=O)NC(=O)NC3CCCCC3)cc2)cn1` [GLIPIZIDE], the IC50 entry (in test [1]; at Melanocortin receptor 5; in test [2]; in test [3]; against Adenosine receptor A3 (cho-k1); in test [4]) was “Not Active” in each case. The IC50 result in test [5] is “Not Active”. Also, the Ki entry in test [3] and in test [5] was “Not Active” each time.

Regarding `Cc1c(F)c(N2CCNC(C)C2)cc2c1c(=O)c(C(=O)O)cn2C1CC1` (centres undefined) [GREPAFLOXACIN], the IC50 result (in test [1]; against Melanocortin receptor 5; in test [2]; in test [3]; against Adenosine receptor A3 (cho-k1); in test [4]) was “Not Active” each time. Further, the IC50 result in test [5] was “Not Active”. The Ki entry in test [3] and in test [5] was “Not Active” in each case.

Take `COc1ccccc1OCC(O)CO` (centres undefined) [GUAIFENESIN]: the IC50 result (in test [1]; against Melanocortin receptor 5; in test [2]; in test [3]; against Adenosine receptor A3 (cho-k1); in test [4]) was “Not Active” in each case. Besides, the IC50 entry in test [5] is given as “Not Active”. Moreover, the Ki entry in test [3] and in test [5] was “Not Active” in each case.

With `C[C@]12CCC(=O)C=C1CC[C@@H]1[C@@H]2[C@@H](O)C[C@@]2(C)[C@H]1CC[C@]2(O)C(=O)CO` [HYDROCORTISONE], the IC50 result (in test [1]; at Melanocortin receptor 5; in test [2]; in test [3]; at Adenosine receptor A3 (cho-k1); in test [4]) was “Not Active” in each case. In test [5], the IC50 entry is recorded as “Not Active”. Besides, the Ki entry in test [3] and in test [5] was “Not Active” in each case.

On to `C/C=C\c1ccc(O)c(OC)c1` [ISOEUGENOL], for which the IC50 result (in test [1]; against Melanocortin receptor 5; in test [2]; in test [3]; against Adenosine receptor A3 (cho-k1); in test [4]) was “Not Active” each time. For the same compound, the IC50 result in test [5] was “Not Active”. For the same compound, the Ki entry in test [3] and in test [5] was “Not Active” each time.

As for `NC[C@H]1O[C@H](O[C@H]2[C@H](O)[C@@H](O[C@H]3O[C@H](CO)[C@@H](O)[C@H](N)[C@H]3O)[C@H](N)C[C@@H]2N)[C@H](O)[C@@H](O)[C@@H]1O` [KANAMYCIN], the IC50 result (in test [1]; at Melanocortin receptor 5; in test [2]; in test [3]; against Adenosine receptor A3 (cho-k1); in test [4]) was “Not Active” each time. The IC50 result in test [5] is listed as “Not Active”. Moreover, the Ki entry in test [3] and in test [5] was “Not Active” each time.

For the compound `CC[C@H](C)C(=O)O[C@H]1C[C@@H](C)C=C2C=C[C@H](C)[C@H](CC[C@@H]3C[C@@H](O)CC(=O)O3)[C@H]21` [LOVASTATIN], the IC50 result (in test [1]; on Melanocortin receptor 5; in test [2]; in test [3]; on Adenosine receptor A3 (cho-k1); in test [4]) was “Not Active” each time. In test [5], the IC50 result is listed as “Not Active”. Further, the Ki result in test [3] and in test [5] was “Not Active” throughout.

In the case of `CC(C(=O)O)c1ccc(CC2CCCC2=O)cc1` (centres undefined) [LOXOPROFEN], the IC50 result (in test [1]; at Melanocortin receptor 5; in test [2]; in test [3]; against Adenosine receptor A3 (cho-k1); in test [4]) was “Not Active” in each case. In addition, the IC50 result in test [5] is “Not Active”. Moreover, the Ki entry in test [3] and in test [5] was “Not Active” throughout.

With `Cc1cccc(Nc2ccccc2C(=O)O)c1C` [MEFENAMIC ACID], the IC50 entry (in test [1]; against Melanocortin receptor 5; in test [2]; in test [3]; on Adenosine receptor A3 (cho-k1); in test [4]) was “Not Active” each time. Moreover, the IC50 entry in test [5] is “Not Active”. In addition, the Ki result in test [3] and in test [5] was “Not Active” each time.

These data come from ChEMBL document CHEMBL1909046, “DrugMatrix in vitro pharmacology data”.
